Laboratory results from the PolyMetriX glass transition set.

| Compound | glass transition temperature |
| --- | --- |
| *C(=O)Nc1ccc(C2(c3ccc(NC(=O)c4ccc5c(c4)C(=O)N(c4ccc(Sc6ccc(Oc7ccc(Sc8ccc(N9C(=O)c%10ccc(*)cc%10C9=O)cc8)cc7)cc6)cc4)C5=O)cc3)c3ccccc3-c3ccccc32)cc1 (repeat unit) | 298.00 °C |
| *c1ccc(Cc2ccc(N3C(=O)c4cc(-c5ccc([Si](C)(C)C)cc5)c(-c5cc6c(cc5-c5ccc([Si](C)(C)C)cc5)C(=O)N(*)C6=O)cc4C3=O)cc2)cc1 (repeat unit) | 348.00 °C |
| *C1C2CC(C(=O)OCCc3ccc(N(c4ccccc4)c4ccccc4)cc3)C(C2)C1* (repeat unit) | 307.00 °C |
| *CC(*)C(=O)Oc1cccc(N(C)C)c1 (repeat unit) | 47.00 °C |
| *Oc1ccc(CC(*)=O)cc1 (repeat unit) | 117.00 °C |
| *OC(CC(*)=O)C(C)(Cl)Cl (repeat unit) | 109.00 °C |
| *C(=O)Nc1ccc(-c2ccc(NC(=O)c3ccc4c(c3)C(=O)N(c3cccc(P(=O)(c5ccccc5)c5cccc(N6C(=O)c7ccc(*)cc7C6=O)c5)c3)C4=O)cc2)cc1 (repeat unit) | 253.00 °C |
| *CCCCCNC(=O)CC(=O)N* (repeat unit) | 65.00 °C |
| *c1nnc(-c2ccc(Oc3ccc(/C=C/c4ccc(Oc5ccc(*)c6ccccc56)cc4)cc3)c3ccccc23)o1 (repeat unit) | 238.00 °C |
| *OP(=O)(Oc1ccc([N+](=O)[O-])cc1)Oc1c(C)cc(S(=O)(=O)c2cc(C)c(*)c(C)c2)cc1C (repeat unit) | 173.00 °C |
| *c1ccc(OCC2CCC(COc3ccc(N4C(=O)c5ccc(-c6ccc7c(c6)C(=O)N(*)C7=O)cc5C4=O)cc3)CC2)cc1 (repeat unit) | 254.40 °C |
| *Oc1ccc(C(C)(C)c2ccc(Oc3ccc(C(=O)c4ccc(C(=O)c5ccc(*)cc5)cc4)cc3)cc2)cc1 (repeat unit) | 160.00 °C |
| *Oc1ccc(Oc2ccc(NC(=O)c3ccc(Oc4ccc(Oc5ccc(C(=O)Nc6ccc(*)cc6)cc5)cc4-c4ccccc4)cc3)cc2)cc1-c1ccccc1 (repeat unit) | 200.50 °C |
| *c1ccc2c(c1)C(=O)N(c1cc(C(c3ccc(O)c(N4C(=O)c5ccc(C(*)(C(F)(F)F)C(F)(F)F)cc5C4=O)c3)(C(F)(F)F)C(F)(F)F)ccc1O)C2=O (repeat unit) | 330.00 °C |
| *OC(CC)C(*)=O (repeat unit) | 15.00 °C |

More lines, now with the values ahead:

| glass transition temperature | Compound |
| --- | --- |
| 311.00 °C | *C(=O)Nc1ccc(-c2sc(-c3ccc(NC(=O)c4ccc5c(c4)C(=O)N(c4ccc(Oc6ccc7ccc(Oc8ccc(N9C(=O)c%10ccc(*)cc%10C9=O)cc8)cc7c6)cc4)C5=O)cc3)c(-c3ccccc3)c2-c2ccccc2)cc1 (repeat unit) |
| 84.00 °C | *Cc1cccc(CNC(=O)CCCCC(=O)N*)c1 (repeat unit) |
| 38.00 °C | *CCCCCCCCOC(=O)NNC(=O)CCCCCCCCC(=O)NNC(=O)O* (repeat unit) |
| 296.00 °C | *Oc1ccc(NC(=O)c2ccc(-c3ccc(C(=O)Nc4ccc(Oc5ccc(C6(c7ccc(*)cc7)CC7CCC6C7)cc5)cc4)cc3)cc2)cc1 (repeat unit) |
| 30.0 °C | *CC(*)(C)C(=O)OCc1cc(Cl)cc(Cl)c1 (repeat unit) |
| 47.00 °C | *Oc1ccc(CC(NC(=O)CCc2ccc(OC(=O)CCCCCCC(*)=O)cc2)C(=O)OCc2ccccc2)cc1 (repeat unit) |
| 72.00 °C | *Oc1ccc(/N=C/CCC/C=N/c2ccc(OC(=O)NCCCCCCNC(*)=O)cc2)cc1 (repeat unit) |
| -71.00 °C | *CCOCCOC(=O)CCCCCCCC(=O)O* (repeat unit) |
| 299.00 °C | *c1ccc(Oc2ccc(N3C(=O)c4ccc(Oc5c(C)cc(-c6cc(C)c(Oc7ccc8c(c7)C(=O)N(*)C8=O)c(C)c6)cc5C)cc4C3=O)cc2)cc1 (repeat unit) |
| 67.00 °C | *CC(=O)NCCCCCCNC(=O)COc1ccc(O*)cc1 (repeat unit) |
